The target in this test is T1, UmChlE (Mycosarcoma maydis, UniProt A0A060S684, P492L).
T1 construct: purification of the chlorogenic acid esterase UmChlE from culture supernatant of U. maydis was accomplished by three complementary separation steps; made in house; host or cells: Ustilago maydis itself (native producer), culture supernatant; Q Sepharose FF, preparative IEF, polyamide column
Nature of the test: Kinetic parameters of UmChlE from initial hydrolysis rates. Format: biochemical, Ustilago maydis. The settings on record: 0.005 - 1 mM substrate, 60 min, 37 °C, pH 7.5. The method, then:
Km and vmax values were calculated with non-linear regression using SigmaPlot 10.0 (Systat Software Inc., Chicago, USA). Blanks were carried out for all assays using water instead of enzyme. For calculation of kcat the molecular mass was determined using denaturing SDS-PAGE.
Kinetic properties were determined from initial hydrolysis rates for the most preferred substrates chlorogenic acid, MFA and MpCA. […] Consequently, the catalytic efficiency (kca/Km), a good indicator for enzyme efficiency and specificity, was better for chlorogenic acid than for the two synthetic substrates.

Where “and” joins values, the source holds several entries; their conditions need not be identical. Identical values can stand only once.

By Km is commonly meant the substrate concentration at which the rate is half of its maximum.

On to `COC(=O)/C=C/c1ccc(O)cc1` [methyl p-coumarate], for which the Km (listed as MpCA) is 64.1 µM and 64 µM.
With `O=C(/C=C/c1ccc(O)c(O)c1)O[C@@H]1C[C@](O)(C(=O)O)C[C@@H](O)[C@H]1O` [chlorogenic acid], the Michaelis constant (Km) amounted to 19.6 µM.
Consider `COC(=O)/C=C/c1ccc(O)c(OC)c1` [methyl ferulate], for which the Km was found to be 102 µM.

(Values after patent publication EP3539977B1, “ENZYMES WITH CHLOROGENIC ACID ESTERASE ACTIVITY AND FERULOYL ESTERASE ACTIVITY” (SternEnzym GmbH & Co. KG, priority 2014, dated 2016).)
